How the values were obtained:
Assay in all cases: DSF thermal shift, kinase panel
Assay type in all cases: binding
Settings in all cases: 10 μM compound
BMP2K = target: T1, BMP2K (Homo sapiens, UniProt Q9NSY1)
T1 construct: purchased in-house (home-made panel, SGC-style construct names)
Procedure: (§1) The corresponding dianilino-TDZs (1–5) were tested on a panel of 46 protein kinases representing the major kinome branches at a concentration of 10 μM using a Differential Scanning Fluorimetry (DSF). Only analogues 1–3 induced a significant (>2 °C) thermal shift when incubated with a subset of the proteins (Table 1).
(§2) Kinase selectivity assay—A home-made kinase panel was generated for the following enzymes: AAK1, BMP2K, BMX, BRAF, CAMK1D, CAMK1G, CAMKK1, CAMKK2B, CDC42BPA, CDK2, CDKL1, CHEK2, CLK1, CSNK1G1, CSNK1G3, CSNK2A1, DYRK1A, DYRK2A, EPHA2, GAK, GSG2, MAPK1, MAP2K7, MAPK14B, MAPK3, PHKG2, PIM1, PLK1, PKMYT1, PRPF4B, RPS6KA1A, RPS6KA5A, RPS6KA6A, SLK, SRPK1, SRPK2, STK3, STK6, STK10, STK17A, STK24, STK38L, TRIB2, TTK, VRK1 and VRK2. Proteins were produced in E. coli, purified in a Ni-chelate column, followed by overnight digestion using TEV protease (made in house with an N-terminal 6xHis tag) and dialysis to remove imidazole. To clear samples of uncleaved proteins and the TEV protease, samples were loaded on new Ni-chelate columns. The flow through was collected, concentrated and loaded to a HiLoad Superdex 200 16/600 column (GE Healthcare, Chicago, IL, USA) for final polishing and buffer exchange.
(§3) Starting from 100 µM protein stocks, our kinase panel enzymes were diluted to 1 µM in buffer 100 mM K2HPO4 pH 7.5 containing 150 mM NaCl, 10% glycerol and 5X dye (Applied Biosystems catalogue 4461806). The protein/dye mixture was transferred to a 384-well PCR microplate having 20 µL per well. Compounds in DMSO at 10 mM concentration were added in 20 nL volume, using a liquid handling device setup with a pin head, to make 10 µM compound concentration in the assay plate.
(§4) Protein thermal shift data was measured in a qPCR instrument (Applied Biosystems QuantStudio 6) programmed to equilibrate the plate at 25 °C for 5 min followed by ramping the temperature to 95 °C at a rate of 0.05 °C/s. Data was processed using Protein Thermal shift software (Applied Biosystems) by fitting experimental curves to a Boltzmann function to calculate differential thermal shifts (dTm) referenced to protein/dye in 0.2% DMSO.

MAP2K7A = target: T2, MAP2K7A (Homo sapiens, UniProt O14733)
T2 construct: purchased in-house (home-made panel, SGC-style construct names)
T2 sequence (O14733 1-419): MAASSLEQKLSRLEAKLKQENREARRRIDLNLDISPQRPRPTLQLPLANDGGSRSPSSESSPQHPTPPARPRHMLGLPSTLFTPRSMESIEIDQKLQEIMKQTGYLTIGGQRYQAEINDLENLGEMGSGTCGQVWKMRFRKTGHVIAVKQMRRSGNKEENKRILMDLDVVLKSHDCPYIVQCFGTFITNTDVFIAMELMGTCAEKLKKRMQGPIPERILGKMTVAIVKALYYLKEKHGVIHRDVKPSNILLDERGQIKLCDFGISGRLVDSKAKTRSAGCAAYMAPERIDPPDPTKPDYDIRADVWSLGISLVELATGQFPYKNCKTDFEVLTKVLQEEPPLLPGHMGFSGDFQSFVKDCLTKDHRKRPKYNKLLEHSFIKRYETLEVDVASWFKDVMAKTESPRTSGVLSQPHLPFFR
Procedure: as §1, §2, §3, §4

TTKA = target: T3, TTKA (Homo sapiens, UniProt P33981)
T3 construct: TEV-cleavable (cleaved yes); made in house; host or cells: E. coli
T3 sequence (P33981 1-857): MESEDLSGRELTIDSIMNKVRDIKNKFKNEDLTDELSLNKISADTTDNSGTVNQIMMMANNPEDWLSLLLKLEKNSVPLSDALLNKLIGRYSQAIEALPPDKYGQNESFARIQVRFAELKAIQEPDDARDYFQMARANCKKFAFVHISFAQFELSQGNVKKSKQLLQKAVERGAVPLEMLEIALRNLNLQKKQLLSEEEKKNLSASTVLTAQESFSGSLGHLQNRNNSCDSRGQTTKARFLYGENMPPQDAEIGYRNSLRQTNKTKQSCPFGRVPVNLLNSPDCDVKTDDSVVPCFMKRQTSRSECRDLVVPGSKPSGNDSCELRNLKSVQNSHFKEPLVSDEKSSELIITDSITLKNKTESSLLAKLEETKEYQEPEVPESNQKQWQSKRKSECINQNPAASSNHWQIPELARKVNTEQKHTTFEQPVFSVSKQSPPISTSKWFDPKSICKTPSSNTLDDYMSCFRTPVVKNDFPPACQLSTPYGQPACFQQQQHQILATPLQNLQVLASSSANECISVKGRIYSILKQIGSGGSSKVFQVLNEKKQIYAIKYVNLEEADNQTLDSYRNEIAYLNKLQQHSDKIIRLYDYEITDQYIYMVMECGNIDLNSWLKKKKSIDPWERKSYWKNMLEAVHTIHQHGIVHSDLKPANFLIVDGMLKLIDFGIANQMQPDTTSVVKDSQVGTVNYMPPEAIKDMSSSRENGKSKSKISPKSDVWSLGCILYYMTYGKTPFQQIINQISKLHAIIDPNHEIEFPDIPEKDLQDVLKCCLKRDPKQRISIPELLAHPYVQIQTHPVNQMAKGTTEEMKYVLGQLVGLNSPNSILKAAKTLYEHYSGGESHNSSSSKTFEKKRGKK
Procedure: as §1, §2, §3, §4

TRIB2A = target: T4, TRIB2A (Homo sapiens, UniProt Q92519)
T4 construct: TEV-cleavable (cleaved yes); made in house; host or cells: E. coli
T4 sequence (Q92519 1-343): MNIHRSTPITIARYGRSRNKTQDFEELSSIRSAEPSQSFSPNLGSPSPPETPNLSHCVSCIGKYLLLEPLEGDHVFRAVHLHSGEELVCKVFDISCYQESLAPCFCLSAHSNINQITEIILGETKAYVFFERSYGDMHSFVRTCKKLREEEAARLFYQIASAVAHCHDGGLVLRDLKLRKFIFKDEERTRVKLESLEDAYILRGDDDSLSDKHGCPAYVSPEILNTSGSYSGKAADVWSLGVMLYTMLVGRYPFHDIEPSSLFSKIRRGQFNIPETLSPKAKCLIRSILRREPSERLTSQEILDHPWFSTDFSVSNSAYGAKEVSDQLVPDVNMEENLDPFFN
Procedure: as §1, §2, §3, §4

T1 sequence (Q9NSY1 whole entry): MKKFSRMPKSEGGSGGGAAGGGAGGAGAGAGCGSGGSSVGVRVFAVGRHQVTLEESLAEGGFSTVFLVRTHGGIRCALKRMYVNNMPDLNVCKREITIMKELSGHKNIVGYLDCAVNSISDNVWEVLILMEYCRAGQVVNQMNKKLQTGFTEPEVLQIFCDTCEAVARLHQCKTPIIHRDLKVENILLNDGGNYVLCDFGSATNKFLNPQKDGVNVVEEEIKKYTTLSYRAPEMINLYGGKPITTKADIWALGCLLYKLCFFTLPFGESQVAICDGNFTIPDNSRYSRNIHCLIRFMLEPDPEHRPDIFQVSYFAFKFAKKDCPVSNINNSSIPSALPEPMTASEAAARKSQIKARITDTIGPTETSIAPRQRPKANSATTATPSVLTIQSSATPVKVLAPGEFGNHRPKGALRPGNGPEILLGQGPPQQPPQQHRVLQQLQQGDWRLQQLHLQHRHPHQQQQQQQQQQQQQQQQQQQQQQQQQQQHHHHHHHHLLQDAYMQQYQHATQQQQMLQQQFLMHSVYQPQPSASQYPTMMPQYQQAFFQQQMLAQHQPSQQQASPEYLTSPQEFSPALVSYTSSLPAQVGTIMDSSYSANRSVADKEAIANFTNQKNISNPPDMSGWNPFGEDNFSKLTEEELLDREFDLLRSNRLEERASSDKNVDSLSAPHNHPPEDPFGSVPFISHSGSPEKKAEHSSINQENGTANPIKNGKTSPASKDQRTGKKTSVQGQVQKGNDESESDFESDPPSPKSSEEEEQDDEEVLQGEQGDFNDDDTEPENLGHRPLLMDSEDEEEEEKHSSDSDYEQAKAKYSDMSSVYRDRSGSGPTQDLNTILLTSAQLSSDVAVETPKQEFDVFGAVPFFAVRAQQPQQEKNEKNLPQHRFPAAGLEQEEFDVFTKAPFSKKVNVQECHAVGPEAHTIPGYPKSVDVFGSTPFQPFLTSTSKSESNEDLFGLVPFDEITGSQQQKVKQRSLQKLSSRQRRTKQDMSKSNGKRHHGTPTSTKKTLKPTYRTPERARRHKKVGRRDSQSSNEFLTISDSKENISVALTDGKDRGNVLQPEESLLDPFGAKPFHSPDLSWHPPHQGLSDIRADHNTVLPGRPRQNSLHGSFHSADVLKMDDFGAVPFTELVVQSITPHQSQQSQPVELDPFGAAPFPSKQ

| SMILES | ΔTm at 10 µM (BMP2K) [°C] | ΔTm at 10 µM (MAP2K7A) [°C] | ΔTm at 10 µM (TTKA) [°C] | ΔTm at 10 µM (TRIB2A) [°C] | ΔTm (TRIB2A; 10 µM) |
| --- | --- | --- | --- | --- | --- |
| Cc1ccc(Nc2nsnc(Nc3ccc(C(N)=O)cc3)c2=O)cc1O [Compound 2, 4-({5-[(3-Hydroxy-4-methylphenyl)amino]-4-oxo-4H-1,2,6-thiadiazin-3-yl}amino)benzamide] | -0.2 | 3.1 | 2.6 |  |  |
| CNC(=O)c1ccccc1Nc1nsnc(Nc2ccc(N3CCOCC3)cc2)c1=O [Compound 5, N-Methyl-2-({5-[(4-morpholinophenyl)amino]-4-oxo-4H-1,2,6-thiadiazin-3-yl}amino)benzamide] | -0.1 | 1 | 0.1 | ~1 |  |
| Cc1ccc(Nc2nsnc(Nc3ccc4c(c3)CS(=O)(=O)C4)c2=O)cc1O [Compound 3, 3-[(2,2-Dioxido-1,3-dihydrobenzo[c]thiophen-5-yl)amino]-5-[(3-hydroxy-4-methylphenyl)amino]-4H-1,2,6-thiadiazin-4-one] | 0.1 | 3.2 | 2.1 | 4.9 |  |
| Cc1ccc(Nc2nsnc(Nc3cccc(C(N)=O)c3)c2=O)cc1O [Compound 1, 3-({5-[(3-Hydroxy-4-methylphenyl)amino]-4-oxo-4H-1,2,6-thiadiazin-3-yl}amino)benzamide] | -0.4 | 1.1 | 0.8 | 2.5 |  |
| CNC(=O)c1ccccc1Nc1nsnc(Nc2cccc(CS(C)(=O)=O)c2)c1=O [Compound 4, N-Methyl-2-([5-({3-[(methylsulfonyl)methyl]phenyl}amino)-4-oxo-4H-1,2,6-thiadiazin-3-yl]-amino}-benzamide] | -0.1 | 0.6 | 0.3 | ~1 | 1,0 °C |

Reference: PMC6019134, “1,2,6-Thiadiazinones as Novel Narrow Spectrum Calcium/Calmodulin-Dependent Protein Kinase Kinase 2 (CaMKK2) Inhibitors” (Molecules : A Journal of Synthetic Chemistry and Natural …, 2018)
